{"source": "PubChem BioAssay AID1259407", "about": "(Chemical Carcinogenesis Research Information System (CCRIS), 2018)", "system": "CCRIS mutagenicity, Ames/micronucleus/aberration tests", "assay": "CCRIS mutagenicity studies", "note": "The source made the active and inactive calls. No rule for the calls is given here.", "data": [{"smiles": "Oc1cccc2cccnc12", "values": [{"measurement": "mutagenic call", "setting": "End Point: IN VITRO CHROMOSOMAL ABERRATIONS, Test System: CHL CELLS, Metabolic Activation: RAT, LIVER, S-9, SODIUM PHENOBARBITAL AND 5,6-BENZOFLAVONE", "result": "active; positive (structural changes)"}, {"measurement": "mutagenic call", "setting": "End Point: IN VITRO CHROMOSOMAL ABERRATIONS, Test System: CHO-LB CELLS, Metabolic Activation: NONE", "result": "inactive; negative"}, {"measurement": "mutagenic call", "setting": "End Point: IN VITRO CHROMOSOMAL ABERRATIONS, Test System: CHO-LB CELLS, Metabolic Activation: RAT, LIVER, S-9, AROCLOR 1254", "result": "active; positive"}, {"measurement": "mutagenic call", "setting": "End Point: IN VITRO CHROMOSOMAL ABERRATIONS, Test System: CHO-WBL CELLS, Metabolic Activation: RAT, LIVER, S-9, PHENOBARBITAL AND BETA-NAPHTHOFLAVONE", "result": "active; positive"}, {"measurement": "mutagenic call", "setting": "Test System: AMES SALMONELLA TYPHIMURIUM, Strain/Indicator: TA97, Metabolic Activation: HAMSTER, LIVER, S-9, AROCLOR 1254 (10%), Method: PREINCUBATION", "result": "active; positive"}, {"measurement": "mutagenic call", "setting": "Test System: AMES SALMONELLA TYPHIMURIUM, Strain/Indicator: TA97, Metabolic Activation: NONE, Method: PREINCUBATION", "result": "inactive; negative"}, {"measurement": "mutagenic call", "setting": "Test System: AMES SALMONELLA TYPHIMURIUM, Strain/Indicator: TA97, Metabolic Activation: RAT, LIVER, S-9, AROCLOR 1254 (10%), Method: PREINCUBATION", "result": "active; positive"}, {"measurement": "mutagenic call", "setting": "Test System: AMES SALMONELLA TYPHIMURIUM, Strain/Indicator: TA98, Metabolic Activation: HAMSTER, LIVER, S-9, AROCLOR 1254 (10%), Method: PREINCUBATION", "result": "inactive; negative"}, {"measurement": "mutagenic call", "setting": "Test System: AMES SALMONELLA TYPHIMURIUM, Strain/Indicator: TA98, Metabolic Activation: HAMSTER, LIVER, S-9, AROCLOR 1254 (30%), Method: PREINCUBATION", "result": "inactive; negative"}, {"measurement": "mutagenic call", "setting": "Test System: AMES SALMONELLA TYPHIMURIUM, Strain/Indicator: TA98, Metabolic Activation: NONE, Method: FLUCTUATION (MICROTITER)", "result": "inactive; negative"}, {"measurement": "mutagenic call", "setting": "Test System: AMES SALMONELLA TYPHIMURIUM, Strain/Indicator: TA98, Metabolic Activation: NONE, Method: PREINCUBATION", "result": "inactive; negative"}, {"measurement": "mutagenic call", "setting": "Test System: AMES SALMONELLA TYPHIMURIUM, Strain/Indicator: TA98, Metabolic Activation: RAT LIVER S-9, AROCLOR 1254, Method: FLUCTUATION (MICROTITER)", "result": "active; positive"}, {"measurement": "mutagenic call", "setting": "Test System: AMES SALMONELLA TYPHIMURIUM, Strain/Indicator: TA98, Metabolic Activation: RAT, LIVER, S-9, AROCLOR 1254 (10%), Method: PREINCUBATION", "result": "inactive; negative"}, {"measurement": "mutagenic call", "setting": "Test System: AMES SALMONELLA TYPHIMURIUM, Strain/Indicator: TA98, Metabolic Activation: RAT, LIVER, S-9, AROCLOR 1254 (30%), Method: PREINCUBATION", "result": "active; positive"}, {"measurement": "mutagenic call", "setting": "Test System: AMES SALMONELLA TYPHIMURIUM, Strain/Indicator: TA98, Metabolic Activation: RAT, LIVER, S-9, AROCLOR 1254, Method: STANDARD PLATE", "result": "active; positive"}, {"measurement": "mutagenic call", "setting": "Test System: AMES SALMONELLA TYPHIMURIUM, Strain/Indicator: TA98, Metabolic Activation: RAT, LIVER, S-9, KC500 OR PHENOBARBITAL, Method: LIQUID SUSPENSION", "result": "active; positive"}, {"measurement": "mutagenic call", "setting": "Test System: AMES SALMONELLA TYPHIMURIUM, Strain/Indicator: TA98, Metabolic Activation: RAT, LIVER, S-9, Method: PREINCUBATION", "result": "active; positive"}, {"measurement": "mutagenic call", "setting": "Test System: AMES SALMONELLA TYPHIMURIUM, Strain/Indicator: TA100, Metabolic Activation: HAMSTER, LIVER, S-9, AROCLOR 1254 (10%), Method: PREINCUBATION", "result": "active; positive"}, {"measurement": "mutagenic call", "setting": "Test System: AMES SALMONELLA TYPHIMURIUM, Strain/Indicator: TA100, Metabolic Activation: HAMSTER, LIVER, S-9, AROCLOR 1254 (30%), Method: PREINCUBATION", "result": "inactive; negative"}, {"measurement": "mutagenic call", "setting": "Test System: AMES SALMONELLA TYPHIMURIUM, Strain/Indicator: TA100, Metabolic Activation: NONE, Method: PREINCUBATION", "result": "inactive; negative"}, {"measurement": "mutagenic call", "setting": "Test System: AMES SALMONELLA TYPHIMURIUM, Strain/Indicator: TA100, Metabolic Activation: NONE, Method: STANDARD PLATE", "result": "inactive; negative"}, {"measurement": "mutagenic call", "setting": "Test System: AMES SALMONELLA TYPHIMURIUM, Strain/Indicator: TA100, Metabolic Activation: RAT, LIVER, S-9, AROCLOR 1254 (5%, 10% OR 20%), Method: STANDARD PLATE", "result": "active; positive"}, {"measurement": "mutagenic call", "setting": "Test System: AMES SALMONELLA TYPHIMURIUM, Strain/Indicator: TA100, Metabolic Activation: RAT, LIVER, S-9, AROCLOR 1254 (10% OR 20%), Method: STANDARD PLATE", "result": "active; positive"}, {"measurement": "mutagenic call", "setting": "Test System: AMES SALMONELLA TYPHIMURIUM, Strain/Indicator: TA100, Metabolic Activation: RAT, LIVER, S-9, AROCLOR 1254 (10%), Method: PREINCUBATION", "result": "active; positive"}, {"measurement": "mutagenic call", "setting": "Test System: AMES SALMONELLA TYPHIMURIUM, Strain/Indicator: TA100, Metabolic Activation: RAT, LIVER, S-9, AROCLOR 1254 (30%), Method: PREINCUBATION", "result": "active; positive"}, {"measurement": "mutagenic call", "setting": "Test System: AMES SALMONELLA TYPHIMURIUM, Strain/Indicator: TA100, Metabolic Activation: RAT, LIVER, S-9, AROCLOR 1254, Method: STANDARD PLATE", "result": "active; positive"}, {"measurement": "mutagenic call", "setting": "Test System: AMES SALMONELLA TYPHIMURIUM, Strain/Indicator: TA100, Metabolic Activation: RAT, LIVER, S-9, KC500 OR PHENOBARBITAL, Method: LIQUID SUSPENSION", "result": "active; positive"}, {"measurement": "mutagenic call", "setting": "Test System: AMES SALMONELLA TYPHIMURIUM, Strain/Indicator: TA100, Metabolic Activation: RAT, LIVER, S-9, Method: PREINCUBATION", "result": "active; positive"}, {"measurement": "mutagenic call", "setting": "Test System: AMES SALMONELLA TYPHIMURIUM, Strain/Indicator: TA100, Metabolic Activation: S-9, Method: PREINCUBATION", "result": "active; positive"}, {"measurement": "mutagenic call", "setting": "Test System: AMES SALMONELLA TYPHIMURIUM, Strain/Indicator: TA1535, Metabolic Activation: HAMSTER, LIVER, S-9, AROCLOR 1254 (10%), Method: PREINCUBATION", "result": "inactive; negative"}, {"measurement": "mutagenic call", "setting": "Test System: AMES SALMONELLA TYPHIMURIUM, Strain/Indicator: TA1535, Metabolic Activation: NONE, Method: PREINCUBATION", "result": "inactive; negative"}, {"measurement": "mutagenic call", "setting": "Test System: AMES SALMONELLA TYPHIMURIUM, Strain/Indicator: TA1535, Metabolic Activation: RAT, LIVER, S-9, AROCLOR 1254 (10%), Method: PREINCUBATION", "result": "inactive; negative"}, {"measurement": "mutagenic call", "setting": "Test System: AMES SALMONELLA TYPHIMURIUM, Strain/Indicator: TA1535, Metabolic Activation: RAT, LIVER, S-9, AROCLOR 1254, Method: STANDARD PLATE", "result": "active; positive"}, {"measurement": "mutagenic call", "setting": "Test System: AMES SALMONELLA TYPHIMURIUM, Strain/Indicator: TA1537, Metabolic Activation: NONE, Method: FLUCTUATION (MICROTITER)", "result": "inactive; negative"}, {"measurement": "mutagenic call", "setting": "Test System: AMES SALMONELLA TYPHIMURIUM, Strain/Indicator: TA1537, Metabolic Activation: RAT LIVER S-9, AROCLOR 1254, Method: FLUCTUATION (MICROTITER)", "result": "active; positive"}, {"measurement": "mutagenic call", "setting": "Test System: AMES SALMONELLA TYPHIMURIUM, Strain/Indicator: TA1537, Metabolic Activation: RAT, LIVER, S-9, AROCLOR 1254, Method: STANDARD PLATE", "result": "active; positive"}, {"measurement": "mutagenic call", "setting": "Test System: AMES SALMONELLA TYPHIMURIUM, Strain/Indicator: TA7001, Metabolic Activation: NONE, Method: FLUCTUATION (MICROTITER)", "result": "inactive; negative"}, {"measurement": "mutagenic call", "setting": "Test System: AMES SALMONELLA TYPHIMURIUM, Strain/Indicator: TA7001, Metabolic Activation: RAT LIVER S-9, AROCLOR 1254, Method: FLUCTUATION (MICROTITER)", "result": "inactive; negative"}, {"measurement": "mutagenic call", "setting": "Test System: AMES SALMONELLA TYPHIMURIUM, Strain/Indicator: TA7002, Metabolic Activation: NONE, Method: FLUCTUATION (MICROTITER)", "result": "inactive; negative"}, {"measurement": "mutagenic call", "setting": "Test System: AMES SALMONELLA TYPHIMURIUM, Strain/Indicator: TA7002, Metabolic Activation: RAT LIVER S-9, AROCLOR 1254, Method: FLUCTUATION (MICROTITER)", "result": "active; positive"}, {"measurement": "mutagenic call", "setting": "Test System: AMES SALMONELLA TYPHIMURIUM, Strain/Indicator: TA7003, Metabolic Activation: NONE, Method: FLUCTUATION (MICROTITER)", "result": "inactive; negative"}, {"measurement": "mutagenic call", "setting": "Test System: AMES SALMONELLA TYPHIMURIUM, Strain/Indicator: TA7003, Metabolic Activation: RAT LIVER S-9, AROCLOR 1254, Method: FLUCTUATION (MICROTITER)", "result": "inactive; negative"}, {"measurement": "mutagenic call", "setting": "Test System: AMES SALMONELLA TYPHIMURIUM, Strain/Indicator: TA7004, Metabolic Activation: NONE, Method: FLUCTUATION (MICROTITER)", "result": "inactive; negative"}, {"measurement": "mutagenic call", "setting": "Test System: AMES SALMONELLA TYPHIMURIUM, Strain/Indicator: TA7004, Metabolic Activation: RAT LIVER S-9, AROCLOR 1254, Method: FLUCTUATION (MICROTITER)", "result": "inactive; negative"}, {"measurement": "mutagenic call", "setting": "Test System: AMES SALMONELLA TYPHIMURIUM, Strain/Indicator: TA7005, Metabolic Activation: NONE, Method: FLUCTUATION (MICROTITER)", "result": "inactive; negative"}, {"measurement": "mutagenic call", "setting": "Test System: AMES SALMONELLA TYPHIMURIUM, Strain/Indicator: TA7005, Metabolic Activation: RAT LIVER S-9, AROCLOR 1254, Method: FLUCTUATION (MICROTITER)", "result": "active; positive"}, {"measurement": "mutagenic call", "setting": "Test System: AMES SALMONELLA TYPHIMURIUM, Strain/Indicator: TA7006, Metabolic Activation: NONE, Method: FLUCTUATION (MICROTITER)", "result": "inactive; negative"}, {"measurement": "mutagenic call", "setting": "Test System: AMES SALMONELLA TYPHIMURIUM, Strain/Indicator: TA7006, Metabolic Activation: RAT LIVER S-9, AROCLOR 1254, Method: FLUCTUATION (MICROTITER)", "result": "inactive; negative"}, {"measurement": "mutagenic call", "setting": "Test System: UDS RODENT HEPATOCYTES, Strain/Indicator: THY INCORP (NON-S-PHASE), Metabolic Activation: IN VIVO, Method: AUTORADIOGRAPHY", "result": "inactive; negative"}]}]}
